Patent publication US11160839B2, “Pediococcus pentosaceus CCFM1012 and application thereof to preparation of Campylobacter jejuni infection antagonism medicine” (Jiangnan University, priority 2018, dated 2021)

System: C. jejuni NCTC11168
Assay: Oxford cup inhibition zone test of lactic acid bacteria fermented supernate on Columbia blood agar
Format: cell-based
Conditions: Campylobacter jejuni, positive control 0.30 mg/mL, 48 h at 37° C., read-out: Diameter of inhibition zone

With CCn1cc(C(=O)O)c(=O)c2cc(F)c(N3CCNCC3)cc21 [norfloxacin] the zone of inhibition at 300 µg/mL was 19.7 ± 0.83 mm.
